Test results taken from ChEMBL document CHEMBL5104164, “Design, synthesis, and biological evaluation of pyrrolopyrimidine derivatives as novel Bruton's tyrosine kinase (BTK) inhibitors” (Eur J Med Chem, 2022).

Assays:
[1] = biological target: Tyrosine-protein kinase BTK (Homo sapiens, UniProt Q06187); assay: Inhibition of BTK (unknown origin) measured by ADP-Glo assay
TMD8 [2] = assay: Antiproliferative activity against human TMD8 cells incubated for 72 hrs by CellTiter-Glo assay; conditions: TMD8, 72 h
OCI-Ly3 = assay: Antiproliferative activity against human OCILY3 cells incubated for 72 hrs by CellTiter-Glo assay; format: functional, cell-based; conditions: OCI-Ly3, 72 h
Rec1 = assay: Antiproliferative activity against human REC1 cells incubated for 72 hrs by CellTiter-Glo assay; format: functional, cell-based; conditions: Rec1, 72 h
DOHH-2 = assay: Antiproliferative activity against human DOHH-2 cells incubated for 72 hrs by CellTiter-Glo assay; format: functional, cell-based; conditions: DOHH-2, 72 h
Ramos = assay: Antiproliferative activity against human Ramos cells incubated for 72 hrs by CellTiter-Glo assay; format: functional, cell-based
SU-DHL-6 = assay: Antiproliferative activity against human SU-DHL-6 cells incubated for 72 hrs by CellTiter-Glo assay; format: functional, cell-based; conditions: SU-DHL-6, 72 h
TMD8 [3] = assay: Antitumor activity against human TMD8 cells xenografted in female CB-17 SCID nude mouse assessed as tumor growth inhibition at 25 mg/kg, po administered twice daily for 21 days; format: functional; conditions: TMD8, 504 h, time 21 day, read-out: TGI
[4] = Antiproliferative activity against human MINO cells incubated for 72 hrs by CellTiter-Glo assay; format: functional, cell-based
[5] = Toxicity in female CB-17 SCID nude mouse xenografted with human TMD8 cells assessed as effect on body weight at 25 mg/kg, po administered twice daily for 21 days; format: organism-based; conditions: in vivo, 504 h, time 21 day
Pfeiffer = assay: Antiproliferative activity against human Pfeiffer cells incubated for 72 hrs by CellTiter-Glo assay; format: functional, cell-based
Raji = assay: Antiproliferative activity against human Raji cells incubated for 72 hrs by CellTiter-Glo assay; format: functional, cell-based
SUD4 = assay: Antiproliferative activity against human SU-DHL-4 cells incubated for 72 hrs by CellTiter-Glo assay; format: functional, cell-based; conditions: SU-DHL-4, 72 h
[6] = AUC (0 to t) in male BALB/c mouse at 10 mg/kg, po; format: ADME, organism-based; set-up: dose 10 mg/kg, route po; conditions: in vivo
[7] = Tmax in male BALB/c mouse at 10 mg/kg, po; format: ADME, organism-based; conditions: in vivo
[8] = Apparent volume of distribution in male BALB/c mouse at 2 mg/kg, iv; format: ADME, organism-based; conditions: in vivo, read-out: Vz
[9] = Cmax in male BALB/c mouse at 2 mg/kg, iv; format: ADME, organism-based; set-up: dose 2 mg/kg, route iv; conditions: in vivo
[10] = Tmax in male BALB/c mouse at 2 mg/kg, iv; format: ADME, organism-based; conditions: in vivo
[11] = AUC (0 to infinity) in male BALB/c mouse at 2 mg/kg, iv; format: ADME, organism-based; set-up: time infinity, dose 2 mg/kg, route iv; conditions: in vivo
[12] = Cmax in male BALB/c mouse at 10 mg/kg, po; format: ADME, organism-based; set-up: dose 10 mg/kg, route po; conditions: in vivo
[13] = AUC (0 to infinity) in male BALB/c mouse at 10 mg/kg, po; format: ADME, organism-based; set-up: time infinity, dose 10 mg/kg, route po; conditions: in vivo
[14] = Half-life in male BALB/c mouse at 2 mg/kg, iv; format: ADME, organism-based; conditions: in vivo
[15] = Clearance in male BALB/c mouse at 2 mg/kg, iv; format: ADME, organism-based; conditions: in vivo
[16] = Half-life in male BALB/c mouse at 10 mg/kg, po; format: ADME, organism-based; conditions: in vivo
[17] = Oral bioavailability in male BALB/c mouse; format: ADME, organism-based; conditions: in vivo
[18] = AUC (0 to t) in male BALB/c mouse at 2 mg/kg, iv; format: ADME, organism-based; set-up: dose 2 mg/kg, route iv; conditions: in vivo

Chain of Tyrosine-protein kinase BTK (Q06187 whole entry): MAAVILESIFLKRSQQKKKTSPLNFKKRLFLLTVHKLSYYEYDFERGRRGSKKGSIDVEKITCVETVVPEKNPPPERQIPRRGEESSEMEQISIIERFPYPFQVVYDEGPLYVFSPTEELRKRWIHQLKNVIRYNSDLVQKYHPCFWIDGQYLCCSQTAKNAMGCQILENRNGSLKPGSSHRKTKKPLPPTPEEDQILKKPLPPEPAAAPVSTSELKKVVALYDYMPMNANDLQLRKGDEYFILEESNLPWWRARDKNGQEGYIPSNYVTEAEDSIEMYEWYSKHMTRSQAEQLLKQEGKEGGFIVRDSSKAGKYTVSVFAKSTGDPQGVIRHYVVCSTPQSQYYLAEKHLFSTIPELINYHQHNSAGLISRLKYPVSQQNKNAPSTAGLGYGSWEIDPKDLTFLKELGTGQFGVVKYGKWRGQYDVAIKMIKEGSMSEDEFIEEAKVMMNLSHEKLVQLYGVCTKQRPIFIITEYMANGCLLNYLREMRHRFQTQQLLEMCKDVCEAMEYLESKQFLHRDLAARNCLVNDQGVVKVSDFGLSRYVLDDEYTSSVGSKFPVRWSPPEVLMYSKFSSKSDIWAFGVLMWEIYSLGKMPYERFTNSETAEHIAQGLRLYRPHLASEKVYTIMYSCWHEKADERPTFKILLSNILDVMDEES

Row | SMILES | IC50 [1] [nM] | IC50 (TMD8 [2]) [nM] | also measured
1 | C=CC(=O)N1CCC(CNc2ncnc3[nH]cc(C(=O)Nc4ccccc4)c23)CC1 | 98.7 | – | –
2 | C=CC(=O)N1CCC(Nc2ncnc3[nH]cc(C(=O)N4CC(Oc5ccccc5)C4)c23)C1 (stereo not given) | 4.5 | 2530 | –
3 | CC#CC(=O)NC1CCCN(c2ncnc3[nH]cc(C(=O)N4CC(Oc5ccccc5)C4)c23)C1 (stereo not given) | > 10000 | – | –
4 | CC#CC(=O)N1CC=C(c2c[nH]c3ncnc(-c4ccc(CNC(=O)Nc5ccccc5)c(F)c4)c23)CC1 | 1.4 | 7.2 | –
5 | C=CC(=O)N1CCC(c2c[nH]c3ncnc(-c4ccc(CNC(=O)c5ccc(C(C)(C)C)cc5)c(F)c4)c23)CC1 | 1.9 | – | –
6 | C=CC(=O)N1CCC(c2c[nH]c3ncnc(-c4ccc(CNC(=O)c5ccc(C(C)(C)C)cc5)c(C)c4)c23)CC1 | 0.8 | 1.5 | –
7 | C=CC(=O)NCCNc1ncnc2[nH]cc(C(=O)N3CC(Oc4ccccc4)C3)c12 | 92.9 | – | –
8 | CC#CC(=O)N1CCC(CNc2ncnc3[nH]cc(C(=O)N4CC(Oc5ccccc5)C4)c23)CC1 | 16.4 | – | –
9 | C=CC(=O)N1CCC[C@@H](n2nc(-c3ccc(Oc4ccccc4)cc3)c3c(N)ncnc32)C1 [IBRUTINIB] | – | 2.7 | IC50 (OCI-Ly3): > 10000 nM; IC50 (Rec1): 0.8 nM; IC50 (DOHH-2): 506 nM; IC50 (Ramos): 2090 nM; IC50 (SU-DHL-6): 1500 nM; inhibition in vivo at 25 mg/kg (TMD8 [3]): 103%; IC50 [4]: > 10000 nM; Activity [5]: Non-Toxic; IC50 (Pfeiffer): 1650 nM; IC50 (Raji): > 10000 nM; IC50 (SUD4): 804 nM
10 | CC#CC(=O)N1CC=C(c2c[nH]c3ncnc(-c4ccc(CNC(=O)c5ccc(C6CC6)cc5)c(F)c4)c23)CC1 | 1.9 | 1.2 | –
11 | C=CC(=O)N1CCC(CNc2ncnc3[nH]cc(C(=O)N4CC(Oc5cccc(Cl)c5)C4)c23)CC1 | 0.5 | 12.9 | AUC(0-t) [6]: 32.8 ng·h/mL; Tmax [7]: 6.6 min; Vd [8]: 1.52 L/kg; Cmax [9]: 1250 ng/mL; Tmax [10]: 3 min; AUC(0-inf) [11]: 541 ng·h/mL; Cmax [12]: 48.6 ng/mL; AUC(0-inf) [13]: 32.9 ng·h/mL; half-life [14]: 11.4 min; clearance [15]: 92.8 mL/min/kg; half-life [16]: 23.4 min; bioavailability [17]: 1.82%; AUC(0-t) [18]: 359 ng·h/mL
12 | C=CC(=O)N1CCC(CNc2ncnc3[nH]cc(C(=O)N4CC(Oc5ccccn5)C4)c23)CC1 | 0.8 | 38.1 | –
13 | CC#CC(=O)N1CCC(Nc2ncnc3[nH]cc(C(=O)N4CC(Oc5ccccc5)C4)c23)C1 (stereo not given) | 68.5 | – | –
14 | C=CC(=O)N1CCC(O)(CNc2ncnc3[nH]cc(C(=O)N4CC(Oc5ccccc5)C4)c23)CC1 | 2.2 | 320 | –
15 | C=CC(=O)N1CCC(CNc2ncnc3[nH]cc(C(=O)N4CC(Oc5cccc6ccccc56)C4)c23)CC1 | 0.8 | 22.6 | –
16 | C=CC(=O)N1CCC(CNc2ncnc3[nH]cc(C(=O)N4CC(Oc5ccc6ccccc6c5)C4)c23)CC1 | 1.4 | 28 | –
17 | C=CC(=O)N1CCC(CNc2ncnc3[nH]cc(C(=O)N4CCC(Oc5ccccc5)CC4)c23)CC1 | 26.2 | – | –
18 | CC#CC(=O)N1CC=C(c2c[nH]c3ncnc(-c4ccc(CNC(=O)c5ccc(C(C)(C)C)cc5)c(F)c4)c23)CC1 | 0.8 | 1.7 | –
19 | CC#CC(=O)N1CC=C(c2c[nH]c3ncnc(-c4ccc(CNC(=O)c5ccc(C(C)(C)C)cc5)c(C)c4)c23)CC1 | 1.1 | 1.7 | –
20 | C=CC(=O)N1CC=C(c2c[nH]c3ncnc(-c4ccc(CNC(=O)c5ccc(C(C)(C)C)cc5)c(F)c4)c23)CC1 | 1.3 | 3.4 | –
21 | CCOc1cc2ncc(C#N)c(Nc3ccc(OCc4ccccn4)c(Cl)c3)c2cc1NC(=O)/C=C/[C@H]1CCCN1C [PYROTINIB] | 31.7 | – | –
22 | C=CC(=O)N1CC=C(c2c[nH]c3ncnc(-c4ccc(CNC(=O)c5ccc(C6CC6)cc5)c(F)c4)c23)CC1 | 1.2 | 0.8 | –
23 | C=CC(=O)N1CCC(CNc2ncnc3[nH]cc(C(=O)N4CC(Oc5cccc(F)c5)C4)c23)CC1 | 0.4 | 9.2 | AUC(0-t) [6]: 69.5 ng·h/mL; Tmax [7]: 15 min; Vd [8]: 1.37 L/kg; Cmax [9]: 2230 ng/mL; Tmax [10]: 1.8 min; AUC(0-inf) [11]: 541 ng·h/mL; Cmax [12]: 148 ng/mL; AUC(0-inf) [13]: 75.3 ng·h/mL; half-life [14]: 15.6 min; clearance [15]: 61.8 mL/min/kg; half-life [16]: 57 min; bioavailability [17]: 2.58%; AUC(0-t) [18]: 539 ng·h/mL
24 | C=CC(=O)N1CCC(CNc2ncnc3[nH]cc(C(=O)N4CC(OC(C)C)C4)c23)CC1 | 23.2 | – | –
